Measured values from ChEMBL document CHEMBL5518178 (Eur J Med Chem, 2024).
Activity calls are given as the source filed them. No cut-off for these calls is given here.

Tests used:
MGC-803 [1] = test: Induction of apoptosis in human MGC-803 cells assessed as late apoptotic cells at 10 nmol/L incubated for 48 hrs by Annexin V-FITC/propidium iodide staining based flow cytometer analysis (reference value: 2.22 %); format: functional
MGC-803 [2] = test: Induction of apoptosis in human MGC-803 cells assessed as necrotic cells at 40 nmol/L incubated for 48 hrs by Annexin V-FITC/propidium iodide staining based flow cytometer analysis (reference value: 0.32 %); format: functional
MGC-803 [3] = test: Induction of apoptosis in human MGC-803 cells assessed as early apoptotic cells at 10 nmol/L incubated for 48 hrs by Annexin V-FITC/propidium iodide staining based flow cytometer analysis (reference value: 4.38 %); format: functional
MGC-803 [4] = test: Antiproliferative activity against human MGC-803 cells assessed as reduction in cell viability incubated for 12 to 48 hrs by MTT assay; format: functional, cell-based; settings: dose 20-80 µM, time 12-48 hrs
[5] = Toxicity in BALB/c-nude mouse xenografted with human MGC-803 cells assessed as change in body weight at 30 mg/kg/day, ip administered for 18 days; format: organism-based; settings: in vivo, 432 h, time 18 day
Tubulin (Homo sapiens) [6] = target: T1, Tubulin (Homo sapiens) (UniProt P68371+Q9H4B7+P0DPH7+P68366+Q13509+Q71U36+P04350+Q3ZCM7+P07437+P68363+Q9BQE3+Q6PEY2+Q13885+Q9BVA1+Q9BUF5); test: Inhibition of tubulin polymerization (unknown origin) at 1 to 3 uM by fluorescence plate reader analysis; format: protein-complex assay; settings: dose 1-3 µM
MGC-803 [7] = test: Antitumor activity against human MGC-803 cells xenografted in BALB/c-nude mouse assessed as tumor weight at 30 mg/kg/day, ip administered for 18 days (reference value: 0.656 g); format: functional; settings: time 18 day
MGC-803 [8] = test: Antitumor activity against human MGC-803 cells xenografted in BALB/c-nude mouse assessed as tumor growth rate at 30 mg/kg/day, ip administered for 18 days relative to control; format: functional; settings: time 18 day
MGC-803 [9] = test: Induction of apoptosis in human MGC-803 cells assessed as early apoptotic cells at 40 nmol/L incubated for 48 hrs by Annexin V-FITC/propidium iodide staining based flow cytometer analysis (reference value: 4.38 %); format: functional
MGC-803 [10] = test: Induction of apoptosis in human MGC-803 cells assessed as late apoptotic cells at 20 nmol/L incubated for 48 hrs by Annexin V-FITC/propidium iodide staining based flow cytometer analysis (reference value: 2.22 %); format: functional
[11] = target: Tubulin beta (Homo sapiens) (UniProt P68371+Q9H4B7+Q13509+P04350+Q3ZCM7+P07437+Q13885+Q9BVA1+Q9BUF5+A6NNZ2); test: Binding affinity to beta-tubulin (unknown origin) assessed as increase in alkaline protease level at 1 to 100 uM preincubated for 1 hr followed by alkaline protease addition and measured after 15 mins by Western blotting analysis; format: protein assay; settings: dose 1-100 µM, time 75.0 min
MGC-803 [12] = test: Induction of apoptosis in human MGC-803 cells assessed as necrotic cells at 20 nmol/L incubated for 48 hrs by Annexin V-FITC/propidium iodide staining based flow cytometer analysis (reference value: 0.32 %); format: functional
MGC-803 [13] = test: Antiproliferative activity against human MGC-803 cells assessed as reduction in cell viability at 20 to 80 nmol/L by MTT assay; format: functional, cell-based; settings: dose 20-80 nmol/L, time 12-48 hrs, TDE = time-dependent effect
Tubulin (Homo sapiens) [14] = target: T1, Tubulin (Homo sapiens); test: Inhibition of tubulin polymerization (unknown origin) at 3 uM by fluorescence plate reader analysis; format: protein-complex assay
MGC-803 [15] = test: Anti-migratory activity against human MGC-803 cells assessed as inhibition of cell migration at 10 to 30 nmol/L measured for 48 hrs by crystal-violet staining based transwell migration assay; format: functional; settings: dose 10-30 nmol/L
MGC-803 [16] = test: Antitumor activity against human MGC-803 cells xenografted in BALB/c-nude mouse assessed as tumor growth inhibition at 30 mg/kg/day, ip administered for 18 days relative to control; format: functional; settings: MGC-803, 432 h, time 18 day, read-out: TGI
[17] = Toxicity in BALB/c-nude mouse xenografted with human MGC-803 cells assessed as abnormal behaviour at 30 mg/kg/day, ip administered for 18 days; format: organism-based; settings: in vivo, 432 h, time 18 day

- inhibition (Tubulin (Homo sapiens) [6]): Active
- Activity [11]: Active
- inhibition (Tubulin (Homo sapiens) [14]): Active
Structure (SMILES): COc1ccc2c(c1)CCCN2c1cc(=O)oc2ccccc12
- Activity (MGC-803 [1]): 2.8%
- Activity (MGC-803 [2]): 1.3%
- Activity (MGC-803 [3]): 4.68%
- Activity (MGC-803 [4]): Dose-Dependent Effect
- Activity [5]: Non-Toxic
- Activity (MGC-803 [7]): 0.226 g
- Activity (MGC-803 [8]): 25%
- Activity (MGC-803 [9]): 41.97%
- Activity (MGC-803 [10]): 2.7%
- Activity (MGC-803 [12]): 0.12%
- Activity (MGC-803 [13]): Tde
- Activity (MGC-803 [15]): Active
- inhibition in vivo at 30 mg/kg/day (MGC-803 [16]): 65.5%
- Activity [17]: Non-Toxic
